We go through 28 compounds from US10508088B2, “Methods using HDAC11 inhibitors” (FORMA Therapeutics, Inc., priority 2016, dated 2019).

Structures are written as SMILES. Bounds are passed on as bounds.

Full length human recombinant HDAC11, sequence (Q96DB2 whole entry): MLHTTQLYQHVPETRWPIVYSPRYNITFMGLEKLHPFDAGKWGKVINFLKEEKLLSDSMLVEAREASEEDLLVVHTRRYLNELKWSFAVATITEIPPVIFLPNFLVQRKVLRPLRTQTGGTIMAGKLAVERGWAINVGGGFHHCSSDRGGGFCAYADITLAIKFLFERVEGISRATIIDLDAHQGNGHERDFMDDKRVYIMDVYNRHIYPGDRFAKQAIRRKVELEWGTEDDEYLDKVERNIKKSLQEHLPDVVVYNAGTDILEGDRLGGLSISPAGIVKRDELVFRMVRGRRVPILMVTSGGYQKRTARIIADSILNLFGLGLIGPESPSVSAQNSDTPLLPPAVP

The test system of the first assay is SET-2 cells. Nature of the assay: Cell proliferation assay (CCK8). The class given is cell-based. To be noted: SET-2 (FIG. 4 legend). As to the method: (§1) This example describes inhibition of in vitro cell proliferation with exemplary HDAC11 inhibitors. The effects of selective HDAC11 inhibitors on cell proliferation were measured in cell lines containing the MPN-associated mutations MPL W515L (Ba/F3 MPL W515L) and JAK2 V617F (Ba/F3 JAK2 V617F, HEL 92.1.7, SET-2). HEL 92.1.7 and SET-2 cells were purchased from the ATCC and DSMZ, respectively. Ba/F3 cells overexpressing either MPLW515L or JAK2V617F, which were cytokine independent, were generated by transforming Ba/F3 cells with retroviruses overexpressing either MPL W515L or JAK2V617F. For survival assays, cells were seeded in 96-well plates at the density of 0.1 million/ml with addition of indicated compounds and incubated at 37° C. for 48 h. CCK8 solution (Dojindo, Rockville, Md.) was added and absorbance at 450 nm was measured after 3 hours of incubation. Readings were normalized to dimethylsulfoxide (DMSO)-treated wells.
As to `N#CC[C@H](C1CCCC1)n1cc(-c2ncnc3[nH]ccc23)cn1` [ruxolitinib, reference compound], the “growth of SET-2 cell line” value is “inhibited”.

Another assay relates to HEL 92.1.7 cells. The assay is described as follows: Cell proliferation assay (CCK8). Type of assay: cell-based. Particulars: HEL 92.1.7, 48 h. The method, then: as §1
Regarding `N#CC[C@H](C1CCCC1)n1cc(-c2ncnc3[nH]ccc23)cn1` [ruxolitinib, reference compound], the “growth of the HEL 92.1.7 cell line” value is “inhibited”.

The target in a further assay is Full length human recombinant HDAC11 (Homo sapiens (Human), UniProt Q96DB2). The assay is described as follows: Enzymatic HDAC11 assay, electrophoretic mobility shift. Type of assay: biochemical. To be noted: substrate FAM-RHKK(tri-fluor-Ac)-NH2, read-out: HDAC11 IC50 Range. The method, then:
The enzymatic HDAC11 assay was performed using electrophoretic mobility shift assay. Full length human recombinant HDAC11 protein was expressed in baculoviral system and purified by affinity chromatography. The enzymatic reactions were assembled in 384 well plates in a total volume of 25 μL in a reaction buffer composing: 100 mM HEPES, pH 7.5, 25 mM KCl, 0.1% bovine serum albumin, 0.01% Triton X-100, 1% DMSO (from compounds) 2 μM of the fluorescently labeled peptide substrate and enzyme. The enzyme was added at a final concentration of 10 nM. The peptide substrate FAM-RHKK(tri-fluor-Ac)-NH2 was used. The compounds were tested at 12 concentrations spaced by 3× dilution intervals. Negative control samples (0%-inhibition in the absence of inhibitor) and positive control samples (100%-inhibition) were assembled in replicates of four in each assay plate. The reactions were incubated at 25° C. and quenched by the addition of 45 μL of termination buffer (100 mM HEPES, pH 7.5, 0.01% Triton X-100, 0.05% SDS).
The terminated assay plates were analyzed on LabChip® 3000 microfluidic electrophoresis instrument (Perkin Elmer/Caliper Life Sciences). The fluorescence intensity of the electrophoretically separated de-acetylated product and substrate peptide was measured. Activity in each sample was determined as the product to sum ratio (PSR):P/(S+P), where P is the peak height of the product peptide and S is the peak height of the substrate peptide. Percent inhibition (Pinh) is determined using the following equation: Pinh=(PSR0%−PSRinh)/(PSR0%−PSR100%)*100,
where PSRinh is the product sum ratio in the presence of inhibitor, PSR0% is the average product sum ration in the absence of inhibitor and PSR100% is the average product sum ratio in 100%-inhibition control samples. The IC50 values of inhibitors were determined by fitting the percent inhibition curves with 4 parameter dose-response model using XLfit 4 software.
On the technique in general: Mobility shift assays separate free from complexed probe on a gel.
For orientation: IC50 means the concentration that gives 50% inhibition. With `O=C(NO)c1cccc2c1CC1(CC2)CCN(Cc2ccc(Cl)c(C(F)(F)F)c2)C1=O` (centres unmarked) [II-67, 1′-(4-chloro-3-(trifluoromethyl)benzyl)-N-hydroxy-2′-oxo-3,4-dihydro-1H-spiro[naphthalene-2,3′-pyrrolidine]-8-carboxamide], the IC50 was less than 500 nM.

With `O=C(NO)c1cccc2c1CC1(CC2)CCN(Cc2ccc(C(F)(F)F)c(F)c2)C1=O` (centres unmarked) [II-68, 1′-(3-fluoro-4-(trifluoromethyl)benzyl)-N-hydroxy-2′-oxo-3,4-dihydro-1H-spiro[naphthalene-2,3′-pyrrolidine]-8-carboxamide], the IC50 was less than 500 nM.

As to `O=C(NO)c1cccc2c1CC1(CC2)CCN(Cc2ccc(Cl)cc2)C1=O` (centres unmarked) [II-69, 1′-(4-chlorobenzyl)-N-hydroxy-2′-oxo-3,4-dihydro-1H-spiro[naphthalene-2,3′-pyrrolidine]-8-carboxamide], the half-maximal inhibitory concentration (IC50) was greater than 1000 nM.

For the compound `O=C(NO)c1cccc2c1CC1(CC2)CCN(Cc2ccc(C(F)(F)F)cc2)C1=O` (centres unmarked) [II-70, N-hydroxy-2′-oxo-1′-(4-(trifluoromethyl)benzyl)-3,4-dihydro-1H-spiro[naphthalene-2,3′-pyrrolidine]-8-carboxamide], the half-inhibitory concentration (IC50) lay in the range of 500 to 1000 nM.

Take `O=C(NO)c1cccc2c1CC1(CC2)CCN(c2ccc(C(F)(F)F)cc2)C1=O` (centres unmarked) [II-71, N-hydroxy-2′-oxo-1′-(4-(trifluoromethyl)phenyl)-3,4-dihydro-1H-spiro[naphthalene-2,3′-pyrrolidine]-8-carboxamide]: the half-inhibitory concentration (IC50) is 500 to 1000 nM.

Consider `O=C(NO)c1cccc2c1CC1(CC2)CCN(c2cccc(C(F)(F)F)c2)C1=O` (centres unmarked) [II-72, N-hydroxy-2′-oxo-1′-(3-(trifluoromethyl)phenyl)-3,4-dihydro-1H-spiro[naphthalene-2,3′-pyrrolidine]-8-carboxamide], for which the 50% inhibitory concentration (IC50) was greater than 1000 nM.

With `O=C(NO)c1cccc2c1CC1(CC2)CCN(c2ccccc2C(F)(F)F)C1=O` (centres unmarked) [II-73, N-hydroxy-2′-oxo-1′-(2-(trifluoromethyl)phenyl)-3,4-dihydro-1H-spiro[naphthalene-2,3′-pyrrolidine]-8-carboxamide], the IC50 was greater than 1000 nM.

Consider `CN(C)C(=O)N1CCC2(CCc3cccc(C(=O)NO)c3O2)CC1` [II-74, N8-hydroxy-N1′,N1′-dimethylspiro[chromane-2,4′-piperidine]-1′,8-dicarboxamide], for which the half-inhibitory concentration (IC50) is greater than 1000 nM.

With `O=C(NO)c1cccc2c1OC1(CC2)CCN(C(=O)c2ccc(F)cc2)CC1` [II-75, 1′-(4-fluorobenzoyl)-N-hydroxyspiro[chromane-2,4′-piperidine]-8-carboxamide], the IC50 was greater than 1000 nM.

On to `O=C(NO)c1cccc2c1OC1(CC2)CCN(S(=O)(=O)C2CCCCC2)CC1` [II-76, 1′-(cyclohexylsulfonyl)-N-hydroxyspiro[chromane-2,4′-piperidine]-8-carboxamide], for which the IC50 was greater than 1000 nM.

`CC1(C(=O)N2CCC3(CCc4cccc(C(=O)NO)c4O3)CC2)CCOCC1` [II-77, N-hydroxy-1′-(4-methyltetrahydro-2H-pyran-4-carbonyl)spiro[chromane-2,4′-piperidine]-8-carboxamide]: the IC50 was greater than 1000 nM.

On to `O=C(NO)c1cccc2c1OC1(CC2)CCN(C(=O)C2(c3cccc(C(F)(F)F)c3)CC2)CC1` [II-78, N-hydroxy-1′-(1-(3-(trifluoromethyl)phenyl)cyclopropane-1-carbonyl)spiro[chromane-2,4′-piperidine]-8-carboxamide], for which the concentration for half-maximal inhibition (IC50) is less than 500 nM.

In the case of `O=C(NO)c1cccc2c1OC1(CC2)CCN(C(=O)Cc2ccccc2)CC1` [II-79, N-hydroxy-1′-(2-phenylacetyl)spiro[chromane-2,4′-piperidine]-8-carboxamide], the IC50 is greater than 1000 nM.

For `O=C(NO)c1cccc2c1OC1(CC2)CCN(Cc2ccc(F)cc2)CC1` [II-80, 1′-(4-fluorobenzyl)-N-hydroxyspiro[chromane-2,4′-piperidine]-8-carboxamide], the 50% inhibitory concentration (IC50) is greater than 1000 nM.

For the compound `O=C(NO)c1cccc2c1OC1(CC2)CCN(C2CCCCC2)CC1` [II-81, 1′-cyclohexyl-N-hydroxyspiro[chromane-2,4′-piperidine]-8-carboxamide], the IC50 was greater than 1000 nM.

For `O=C(NO)c1cccc2c1OC1(CC2)CCN(c2ccc(C(F)(F)F)cn2)CC1` [II-82, N-hydroxy-1′-(5-(trifluoromethyl)pyridin-2-yl)spiro[chromane-2,4′-piperidine]-8-carboxamide], the half-inhibitory concentration (IC50) is greater than 1000 nM.

Regarding `Cc1ccc(N2CCC3(CCc4cccc(C(=O)NO)c4O3)CC2)cc1F` [II-83, 1′-(3-fluoro-4-methylphenyl)-N-hydroxyspiro[chromane-2,4′-piperidine]-8-carboxamide], the IC50 was greater than 1000 nM.

Take `O=C(NO)c1cccc2c1CCC1(CCN(Cc3ccc(Cl)c(C(F)(F)F)c3)C1=O)C2` (centres unmarked) [II-84, 1′-(4-chloro-3-(trifluoromethyl)benzyl)-N-hydroxy-2′-oxo-3,4-dihydro-1H-spiro[naphthalene-2,3′-pyrrolidine]-5-carboxamide]: the half-maximal inhibitory concentration (IC50) was less than 500 nM.

Take `O=C(NO)c1cccc2c1CCC1(CCN(Cc3ccc(C(F)(F)F)cc3)C1=O)C2` (centres unmarked) [II-85, N-hydroxy-2′-oxo-1′-(4-(trifluoromethyl)benzyl)-3,4-dihydro-1H-spiro[naphthalene-2,3′-pyrrolidine]-5-carboxamide]: the IC50 was less than 500 nM.

Consider `O=C(NO)c1cccc2c1CCC1(CCN(Cc3ccc(C(F)(F)F)c(F)c3)C1=O)C2` (centres unmarked) [II-86, 1′-(3-fluoro-4-(trifluoromethyl)benzyl)-N-hydroxy-2′-oxo-3,4-dihydro-1H-spiro[naphthalene-2,3′-pyrrolidine]-5-carboxamide], for which the 50% inhibitory concentration (IC50) is less than 500 nM.

Take `O=C(NO)c1cccc2c1CCC1(CCN(Cc3ccc(Cl)cc3)C1=O)C2` (centres unmarked) [II-87, 1′-(4-chlorobenzyl)-N-hydroxy-2′-oxo-3,4-dihydro-1H-spiro[naphthalene-2,3′-pyrrolidine]-5-carboxamide]: the half-inhibitory concentration (IC50) is greater than 1000 nM.

As to `O=C(NO)c1cccc2c1CCC1(CCN(c3ccc(C(F)(F)F)cc3)C1=O)C2` (centres unmarked) [II-88, N-hydroxy-2′-oxo-1′-(4-(trifluoromethyl)phenyl)-3,4-dihydro-1H-spiro[naphthalene-2,3′-pyrrolidine]-5-carboxamide], the IC50 was less than 500 nM.

Take `O=C(NO)c1cccc2c1CCC1(CCN(c3cccc(C(F)(F)F)c3)C1=O)C2` (centres unmarked) [II-89, N-hydroxy-2′-oxo-1′-(3-(trifluoromethyl)phenyl)-3,4-dihydro-1H-spiro[naphthalene-2,3′-pyrrolidine]-5-carboxamide]: the IC50 was 500 to 1000 nM.

`O=C(NO)c1cccc2c1CCC1(CCN(c3ccccc3C(F)(F)F)C1=O)C2` (centres unmarked) [II-90, N-hydroxy-2′-oxo-1′-(2-(trifluoromethyl)phenyl)-3,4-dihydro-1H-spiro[naphthalene-2,3′-pyrrolidine]-5-carboxamide]: the IC50 is greater than 1000 nM.

For `CC(=O)N1CCC2(CCc3c(cccc3C(=O)NO)O2)CC1` [II-91, 1′-acetyl-N-hydroxyspiro[chromane-2,4′-piperidine]-5-carboxamide], the concentration for half-maximal inhibition (IC50) is greater than 1000 nM.

`O=C(NO)c1cccc2c1CCC1(CCN(c3ccccc3)CC1)O2` [II-92, N-hydroxy-1′-phenylspiro[chromane-2,4′-piperidine]-5-carboxamide]: the concentration for half-maximal inhibition (IC50) was greater than 1000 nM.

Consider `O=C(NO)c1cccc2c1CCC1(CCN(c3ccc(F)cc3)CC1)O2` [II-93, 1′-(4-fluorophenyl)-N-hydroxyspiro[chromane-2,4′-piperidine]-5-carboxamide], for which the 50% inhibitory concentration (IC50) is greater than 1000 nM.
